# Laboratory results published in patent publication US9527830B2 (Merck Sharp & Dohme Corp., priority 2011, dated 2016).
# Target: T1, hROMK1 (Kir1.1) (Homo sapiens, UniProt P48048)
# T1 construct: expressed in transfected cells
# T1 sequence (P48048 1-391): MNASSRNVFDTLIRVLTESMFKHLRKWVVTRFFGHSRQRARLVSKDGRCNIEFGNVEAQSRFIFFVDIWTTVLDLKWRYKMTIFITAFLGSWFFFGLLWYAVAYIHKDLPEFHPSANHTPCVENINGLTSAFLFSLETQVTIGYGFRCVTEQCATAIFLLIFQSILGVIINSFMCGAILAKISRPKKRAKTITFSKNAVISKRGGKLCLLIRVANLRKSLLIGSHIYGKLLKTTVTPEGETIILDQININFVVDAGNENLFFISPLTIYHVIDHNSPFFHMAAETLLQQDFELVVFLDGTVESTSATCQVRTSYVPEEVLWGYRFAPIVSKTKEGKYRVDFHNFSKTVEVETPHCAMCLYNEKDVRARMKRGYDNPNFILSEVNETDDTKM
# Assay: ^86Rb^+ Efflux Assay
# Type: cell-based
# Settings: CHO-DHFR- cells stably expressing hROMK1; potency ranges
# Method: Several assays may be used to measure functional inhibition of the ROMK channel by compounds of the instant invention. One primary assay that can be used is a functional ^86Rb^+ efflux assay that measures the ability of ROMK to permeate ^86Rb^+, in the absence or presence of test compound. Under control conditions, cells loaded with ^86Rb^+ and incubated in Rb^+-free medium display a time-dependent efflux of the isotope, the rate of which depends on number of functional channels. When cells are incubated in the presence of a channel inhibitor, efflux of ^86Rb^+ is prevented in a concentration-dependent manner, and IC50 values of inhibition by compounds can be accurately determined. This assay has been established with cell lines expressing either human, rat or dog ROMK channels, and can operate in 96- or 384-well format. Importantly, the human, rat, and dog ^86Rb^+ efflux assays can be carried out in the presence of up to 100% serum allowing, therefore, an accurate estimation of the effect of protein binding on the inhibitory activity of compounds of interest. Another ROMK functional assay makes use of the ability of thallium to permeate through open ROMK channels and increase the fluorescence of a dye previously loaded into the cells. Under control conditions, cells loaded with dye and exposed to thallium-containing medium display a time-dependent increase in fluorescence, the rate of which depends on number of functional channels. When cells are incubated in the presence of a channel inhibitor, the increase in fluorescence is attenuated in a concentration-dependent manner, and IC50 values of inhibition by compounds can be accurately determined. This assay has been established with cell lines expressing either human, or rat ROMK channels, and operates in 384-well format. Another assay for evaluation of the compounds of the instant invention and for evaluation of mechanism of action of compounds of Formula I relies on the measurement of the electrical current that is generated as potassium permeates through the channel. For these electrophysiological experiments, three different platforms, IonWorks, QPatch, or manual patch clamp, are used, depending on the experimental protocol under consideration. IonWorks operates in a 384-well format and allows accurate determination of IC50 values for inhibitors.
# CHO-DHFR-cells stably expressing hROMK1 (Kir1.1) were grown at 37° C. in a 10% CO2 humidified incubator in Iscove's Modified Dulbecco's Medium (Gibco 12440) supplemented with HT Supplement, Penicillin/Streptomycin/Glutamine, G418 (500 μg/ml) and 10% FBS. Cells were seeded in Sterile and Tissue Culture Treated Packard CulturPlate White Opaque Microplates at a concentration of 5.0E5-7.0E5 cells/ml—PerkinElmer 6005680 (96-well); Corning 3707 (384 well) in complete media containing 1.5 μCi/ml Rubidium-86. Cells were incubated in 37° C.-10% CO2 incubator overnight. On the day of the experiment, the media was removed and cells washed with low K assay buffer. ^86Rb^+ efflux was initiated after addition of assay buffer±test compound followed by 35 min incubation at room temperature. ROMK-sensitive component of efflux was defined in the presence of 10 mM BaCl2. Assay buffer was removed and transferred to a plate and cells were solubilized in the presence of SDS. Radioactivity associated with assay and cell plate was determined.
# • 1. Removed cell media and washed cells with low K assay buffer (126.9 mM NaCl, 4.6 mM KCl, 2 mM CaCl2, 1 mM MgCl2, 10 mM Hepes/NaOH; pH 7.4) • 200 μl for 96-well plate; 70 μl for 384-well plate • 2. Added assay buffer (121.5 mM NaCl, 10 mM KCl, 2 mM CaCl2, 1 mM MgCl2, 10 mM Hepes/NaOH; pH 7.4)±test compound to cells • 100 μl for 96-well plate; 50 μl for 384-well plate • 3. Incubated at ambient temperature (22-24° C.) for 35 min • 4.
row,IC50,SMILES
1,≤ 500 nM,"N#Cc1c(F)ccc(CCC2(O)CCN(C(=O)Cc3ccc(-n4cnnn4)cc3)CC2)c1F [Example 34, 2,6-Difluoro-3-[2-(4-hydroxy-1-{[4-(1H-tetrazol-1-yl)phenyl]acetyl}piperidin-4-yl)ethyl]benzonitrile]"
2,≤ 500 nM,"N#Cc1cc(CCC2(CO)CCN(C(=O)Cc3ccc(-n4cnnn4)cc3)CC2)ccc1F [Example 26, 2-Fluoro-5-{2-[4-(hydroxymethyl)-1-{[4-(1H-tetrazol-1-yl)phenyl]acetyl}piperidin-4-yl]ethyl}benzonitrile]"
3,≤ 500 nM,"N#Cc1cc(CCC2(F)CCN(C(=O)Cc3ccc(-n4cnnn4)cc3)CC2)ccc1F [Example 14, 2-Fluoro-5-[2-(4-fluoro-1-{[4-(1H-tetrazol-1-yl)phenyl]acetyl}piperidin-4-yl)ethyl]benzonitrile]"
4,≤ 500 nM,"CN(C)C1(CCc2ccc(F)c(C#N)c2)CCN(C(=O)Cc2ccc(-n3cnnn3)cc2)CC1 [Example 82, 5-{2-[4-(Dimethylamino)-1-{[4-(1H-tetrazol-1-yl)phenyl]acetyl}piperidin-4-yl]ethyl}-2-fluorobenzonitrile]"
5,≤ 200 nM,O=C1OCCc2cc(CCC3CCN(C(=O)C4CCc5cc(-n6cnnn6)ccc54)CC3)ccc21 (stereo not drawn) [Example 66]
6,≤ 500 nM,"Cc1c(CCC2(O)CCN(C(=O)Cc3ccc(-n4cnnn4)cc3)CC2)ccc(F)c1C#N [Example 37, 6-Fluoro-3-[2-(4-hydroxy-1-{[4-(1H-tetrazol-1-yl)phenyl]acetyl}piperidin-4-yl)ethyl]-2-methylbenzonitrile]"
7,≤ 500 nM,"N#Cc1cc(C#CC2(O)CCN(C(=O)Cc3ccc(-n4cnnn4)cc3)CC2)ccc1F [Example 10, 2-Fluoro-5-[(4-hydroxy-1-{[4-(1H-tetrazol-1-yl)phenyl]acetyl}piperidin-4-yl)ethynyl]benzonitrile]"
8,≤ 200 nM,"N#Cc1cc(CCC2(O)CCN(CCc3ccc4c(c3)COC4=O)CC2)ccc1F [Example 30, 2-Fluoro-5-(2-{4-hydroxy-1-[2-(1-oxo-1,3-dihydro-2-benzofuran-5-yl)ethyl]piperidin-4-yl}ethyl)benzonitrile]"
9,≤ 500 nM,"O=C1OCc2cc(CCC3CCN(C(=O)Cc4ccc5c(c4)COC5=O)CC3)ccc21 [Example 50, 5-(2-{1-[(1-Oxo-1,3-dihydro-2-benzofuran-5-yl)acetyl]piperidin-4-yl}ethyl)-2-benzofuran-1(3H)-one]"
10,≤ 500 nM,"N#Cc1cc(/C=C/C2CCN(C(=O)Cc3ccc4c(c3)COC4=O)CC2)ccc1F [Example 48, 2-Fluoro-5-[(E)-2-{1-[(1-oxo-1,3-dihydro-2-benzofuran-5-yl)acetyl]piperidin-4-yl}ethenyl]benzonitrile]"
11,≤ 500 nM,"COc1cc(CC(=O)N2CCC(CCc3ccc4c(c3)CCOC4=O)CC2)c(F)cc1C#N [Example 67, 5-Fluoro-2-methoxy-4-(2-oxo-2-{4-[2-(1-oxo-3,4-dihydro-1H-isochromen-6-yl)ethyl]piperidin-1-yl}ethyl)benzonitrile]"
12,≤ 500 nM,"Cc1cc(-n2cnnn2)ccc1CC(=O)N1CCC(O)(CCc2ccc(F)c(C#N)c2)CC1 [Example 18, 2-Fluoro-5-[2-(4-hydroxy-1-{[2-methyl-4-(1H-tetrazol-1-yl)phenyl]acetyl}piperidin-4-yl)ethyl]benzonitrile]"
13,≤ 500 nM,"COc1cc(CC(=O)N2CCC(CCc3ccc4c(c3)COC4=O)CC2)c(F)cc1C#N [Example 56, 5-Fluoro-2-methoxy-4-(2-oxo-2-{4-[2-(1-oxo-1,3-dihydro-2-benzofuran-5-yl)ethyl]piperidin-1-yl}ethyl)benzonitrile]"
14,≤ 500 nM,"O=C1OCc2cc(CCC3CCN(C(=O)Cc4ccc(-n5cnnn5)cc4)CC3)ccc21 [Example 7, 5-[2-(1-{[4-(1H-Tetrazol-1-yl)phenyl]acetyl}piperidin-4-yl)ethyl]-2-benzofuran-1(3H)-one]"
15,≤ 200 nM,Cc1cc(/C=C/C2CCN(CCc3ccc4c(c3)COC4=O)CC2)ccc1C#N [Example 83]
16,≤ 500 nM,"COc1cc(CC(=O)N2CCC(/C=C/c3ccc4c(c3)COC4=O)CC2)ccc1C#N [Example 52, 2-Methoxy-4-(2-oxo-2-(4-[(E)-2-(1-oxo-1,3-dihydro-2-benzofuran-5-yl)ethenyl]piperidin-1-yl}ethyl]benzonitrile]"
17,≤ 500 nM,"O=C(Cc1ccc(-n2cnnn2)cc1)N1CCC(O)(CCc2ccc3nonc3c2)CC1 [Example 8, 1-{4-[2-(2,1,3-Benzoxadiazol-5-yl)ethyl]-4-hydroxypiperidin-1-yl}-2-[4-(1H-tetrazol-1-yl)phenyl]ethanone]"
18,≤ 500 nM,"O=C1OCc2c1ccc(/C=C/C1CCN(C(=O)Cc3ccc(-n4cnnn4)cc3)CC1)c2Br [Example 68, 4-Bromo-5-[(E)-2-(1-{[4-(1H-tetrazol-1-yl)phenyl]acetyl}piperidin-4-yl)ethenyl]-2-benzofuran-1(3H)-one]"
19,≤ 200 nM,"O=C1OCCc2cc(CCC3CCN(C(=O)Cc4ccc(-n5cnnn5)cc4)CC3)ccc21 [Example 65, 6-[2-(1-{[4-(1H-tetrazol-1-yl)phenyl]acetyl}piperidin-4-yl)ethyl]-3,4-dihydro-1H-isochromen-1-one]"
20,≤ 200 nM,O=C(Cc1ccc(-n2cnnn2)cc1)N1CCC(/C=C/c2ccc3nonc3c2)CC1 [Example 5]
21,≤ 200 nM,"COc1cc(CCN2CCC(CCc3ccc4c(c3)COC4=O)CC2)ccc1C#N [Example 71, 2-Methoxy-4-(2-{4-[2-(1-oxo-1,3-dihydro-2-benzofuran-5-yl)ethyl]piperidin-1-yl}ethyl)benzonitrile]"
22,≤ 500 nM,"CCOC(=O)C1(CCc2ccc(F)c(C#N)c2)CCN(C(=O)Cc2ccc(-n3cnnn3)cc2)CC1 [Example 15, Ethyl 4-[2-(3-cyano-4-fluorophenyl)ethyl]-1-{[4-(1H-tetrazol-1-yl)phenyl]acetyl}piperidine-4-carboxylate]"
23,≤ 500 nM,"N#Cc1cc(CCC2(O)CCN(C(=O)Cc3ccc(-n4cnnn4)cc3)CC2)ccc1F [Example 13, 2-Fluoro-5-[2-(4-hydroxy-1-{[4-(1H-tetrazol-1-yl)phenyl]acetyl}piperidin-4-yl)ethyl]benzonitrile]"
24,≤ 200 nM,O=C1OCc2cc(/C=C/C3CCN(C(=O)Cc4ccc(-n5cnnn5)cc4)CC3)ccc21 [Example 6]
25,≤ 200 nM,"CC1Cc2cc(CCC3CCN(C(=O)Cc4ccc(-n5cnnn5)cc4)CC3)ccc2C(=O)O1 (stereo not drawn) [Example 80, 3-Methyl-6-[2-(1-{[4-(1H-tetrazol-1-yl)phenyl]acetyl}piperidin-4-yl)ethyl]-3,4-dihydro-1H-isochromen-1-one]"
26,≤ 200 nM,"O=C(Cc1ccc(-n2cnnn2)cc1)N1CCC(CCc2ccc([N+](=O)[O-])cc2)CC1 [Example 4, 2-(4-(1H-Tetrazol-1-yl)phenyl)-1-(4-(4-nitrophenethyl)piperidin-1-yl)ethanone]"
27,≤ 200 nM,"O=C1OCc2cc(CCC3CCN(C(=O)C4CCc5cc(-n6cnnn6)ccc54)CC3)ccc21 (stereo not drawn) [Example 72, 5-[2(1-{[5(1H-Tetrazol-1-yl)-2,3-dihydro-1H-inden-yl]carbonyl}piperidin-4-yl)ethyl]-2-benzofuran-1(3H)-one]"
